{"source": "patent US20150094474A1", "about": "“AGRICULTURAL CHEMICALS” (Redx Pharma Ltd., priority 2012, published 2015)", "key": {"peas": {"system": "peas", "test": "Herbicidal bioassay, peas (% necrosis)", "type": "in vivo", "how_it_was_run": "(§1)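 Lolium perenne, barley, peas and Chinese cabbage at 2-4 true leaf stage sprayed simultaneously with a Potter tower, compounds in DMSO at six concentrations (0.05% to 0.0001%). Phytotoxicity scored as % necrosis per EPPO PP1/135 at set intervals; five replicates per treatment and species; DMSO and water controls.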"}, "barley": {"system": "barley", "test": "Herbicidal bioassay, barley (% necrosis)", "type": "in vivo", "how_it_was_run": "as §1"}}, "data": [{"molecule": "CC(/C=N/O)Oc1ccc(Oc2ccc(C(F)(F)F)cn2)cc1", "note": "(stereo not drawn) [Compound 64, (1E)-2-[4-[[5-(Trifluoromethyl)-2-pyridyl]oxy]phenoxy]propanal oxime]", "values": [{"measurement": "Sum of % necrosis in Peas", "setting": "peas; Dose 0.000001, Day 0", "result": "C (less than 50% necrosis)"}, {"measurement": "Sum of % necrosis in Peas", "setting": "peas; Dose 0.000001, Day 1", "result": "C (less than 50% necrosis)"}, {"measurement": "Sum of % necrosis in Peas", "setting": "peas; Dose 0.000001, Day 3", "result": "C (less than 50% necrosis)"}, {"measurement": "Sum of % necrosis in Peas", "setting": "peas; Dose 0.000001, Day 7", "result": "C (less than 50% necrosis)"}, {"measurement": "Sum of % necrosis in Peas", "setting": "peas; Dose 0.000001, Day 10", "result": "C (less than 50% necrosis)"}, {"measurement": "Sum of % necrosis in Peas", "setting": "peas; Dose 0.000001, Day 14", "result": "C (less than 50% necrosis)"}, {"measurement": "Sum of % necrosis in Peas", "setting": "peas; Dose 0.000001, Day 21", "result": "B (50%-80% necrosis)"}, {"measurement": "Sum of % necrosis in Peas", "setting": "peas; Dose 0.000005, Day 0", "result": "C (less than 50% necrosis)"}, {"measurement": "Sum of % necrosis in Peas", "setting": "peas; Dose 0.000005, Day 1", "result": "C (less than 50% necrosis)"}, {"measurement": "Sum of % necrosis in Peas", "setting": "peas; Dose 0.000005, Day 3", "result": "C (less than 50% necrosis)"}, {"measurement": "Sum of % necrosis in Peas", "setting": "peas; Dose 0.000005, Day 7", "result": "C (less than 50% necrosis)"}, {"measurement": "Sum of % necrosis in Peas", "setting": "peas; Dose 0.000005, Day 10", "result": "C (less than 50% necrosis)"}, {"measurement": "Sum of % necrosis in Peas", "setting": "peas; Dose 0.000005, Day 14", "result": "C (less than 50% necrosis)"}, {"measurement": "Sum of % necrosis in Peas", "setting": "peas; Dose 0.000005, Day 21", "result": "C (less than 50% necrosis)"}, {"measurement": "Sum of % necrosis in Peas", "setting": "peas; Dose 0.00001, Day 0", "result": "C (less than 50% necrosis)"}, {"measurement": "Sum of % necrosis in Peas", "setting": "peas; Dose 0.00001, Day 1", "result": "C (less than 50% necrosis)"}, {"measurement": "Sum of % necrosis in Peas", "setting": "peas; Dose 0.00001, Day 3", "result": "C (less than 50% necrosis)"}, {"measurement": "Sum of % necrosis in Peas", "setting": "peas; Dose 0.00001, Day 7", "result": "C (less than 50% necrosis)"}, {"measurement": "Sum of % necrosis in Peas", "setting": "peas; Dose 0.00001, Day 10", "result": "C (less than 50% necrosis)"}, {"measurement": "Sum of % necrosis in Peas", "setting": "peas; Dose 0.00001, Day 14", "result": "B (50%-80% necrosis)"}, {"measurement": "Sum of % necrosis in Peas", "setting": "peas; Dose 0.00001, Day 21", "result": "A (over 80% necrosis)"}, {"measurement": "Sum of % necrosis in Peas", "setting": "peas; Dose 0.00005, Day 0", "result": "C (less than 50% necrosis)"}, {"measurement": "Sum of % necrosis in Peas", "setting": "peas; Dose 0.00005, Day 1", "result": "C (less than 50% necrosis)"}, {"measurement": "Sum of % necrosis in Peas", "setting": "peas; Dose 0.00005, Day 3", "result": "C (less than 50% necrosis)"}, {"measurement": "Sum of % necrosis in Peas", "setting": "peas; Dose 0.00005, Day 7", "result": "C (less than 50% necrosis)"}, {"measurement": "Sum of % necrosis in Peas", "setting": "peas; Dose 0.00005, Day 10", "result": "C (less than 50% necrosis)"}, {"measurement": "Sum of % necrosis in Peas", "setting": "peas; Dose 0.00005, Day 14", "result": "C (less than 50% necrosis)"}, {"measurement": "Sum of % necrosis in Peas", "setting": "peas; Dose 0.00005, Day 21", "result": "C (less than 50% necrosis)"}, {"measurement": "Sum of % necrosis in Peas", "setting": "peas; Dose 0.0001, Day 0", "result": "C (less than 50% necrosis)"}, {"measurement": "Sum of % necrosis in Peas", "setting": "peas; Dose 0.0001, Day 1", "result": "C (less than 50% necrosis)"}, {"measurement": "Sum of % necrosis in Peas", "setting": "peas; Dose 0.0001, Day 3", "result": "C (less than 50% necrosis)"}, {"measurement": "Sum of % necrosis in Peas", "setting": "peas; Dose 0.0001, Day 7", "result": "C (less than 50% necrosis)"}, {"measurement": "Sum of % necrosis in Peas", "setting": "peas; Dose 0.0001, Day 10", "result": "C (less than 50% necrosis)"}, {"measurement": "Sum of % necrosis in Peas", "setting": "peas; Dose 0.0001, Day 14", "result": "B (50%-80% necrosis)"}, {"measurement": "Sum of % necrosis in Peas", "setting": "peas; Dose 0.0001, Day 21", "result": "A (over 80% necrosis)"}, {"measurement": "Sum of % necrosis in Peas", "setting": "peas; Dose 0.0005, Day 0", "result": "C (less than 50% necrosis)"}, {"measurement": "Sum of % necrosis in Peas", "setting": "peas; Dose 0.0005, Day 1", "result": "C (less than 50% necrosis)"}, {"measurement": "Sum of % necrosis in Peas", "setting": "peas; Dose 0.0005, Day 3", "result": "C (less than 50% necrosis)"}, {"measurement": "Sum of % necrosis in Peas", "setting": "peas; Dose 0.0005, Day 7", "result": "C (less than 50% necrosis)"}, {"measurement": "Sum of % necrosis in Peas", "setting": "peas; Dose 0.0005, Day 10", "result": "C (less than 50% necrosis)"}, {"measurement": "Sum of % necrosis in Peas", "setting": "peas; Dose 0.0005, Day 14", "result": "C (less than 50% necrosis)"}, {"measurement": "Sum of % necrosis in Peas", "setting": "peas; Dose 0.0005, Day 21", "result": "A (over 80% necrosis)"}, {"measurement": "Sum of % necrosis in barley", "setting": "barley; Dose 0.000001, Day 0", "result": "C (less than 50% necrosis)"}, {"measurement": "Sum of % necrosis in barley", "setting": "barley; Dose 0.000001, Day 1", "result": "C (less than 50% necrosis)"}, {"measurement": "Sum of % necrosis in barley", "setting": "barley; Dose 0.000001, Day 3", "result": "C (less than 50% necrosis)"}, {"measurement": "Sum of % necrosis in barley", "setting": "barley; Dose 0.000001, Day 7", "result": "C (less than 50% necrosis)"}, {"measurement": "Sum of % necrosis in barley", "setting": "barley; Dose 0.000001, Day 10", "result": "C (less than 50% necrosis)"}, {"measurement": "Sum of % necrosis in barley", "setting": "barley; Dose 0.000001, Day 14", "result": "C (less than 50% necrosis)"}, {"measurement": "Sum of % necrosis in barley", "setting": "barley; Dose 0.000001, Day 21", "result": "C (less than 50% necrosis)"}, {"measurement": "Sum of % necrosis in barley", "setting": "barley; Dose 0.000005, Day 0", "result": "C (less than 50% necrosis)"}, {"measurement": "Sum of % necrosis in barley", "setting": "barley; Dose 0.000005, Day 1", "result": "C (less than 50% necrosis)"}, {"measurement": "Sum of % necrosis in barley", "setting": "barley; Dose 0.000005, Day 3", "result": "C (less than 50% necrosis)"}, {"measurement": "Sum of % necrosis in barley", "setting": "barley; Dose 0.000005, Day 7", "result": "C (less than 50% necrosis)"}, {"measurement": "Sum of % necrosis in barley", "setting": "barley; Dose 0.000005, Day 10", "result": "C (less than 50% necrosis)"}, {"measurement": "Sum of % necrosis in barley", "setting": "barley; Dose 0.000005, Day 14", "result": "C (less than 50% necrosis)"}, {"measurement": "Sum of % necrosis in barley", "setting": "barley; Dose 0.000005, Day 21", "result": "C (less than 50% necrosis)"}, {"measurement": "Sum of % necrosis in barley", "setting": "barley; Dose 0.00001, Day 0", "result": "C (less than 50% necrosis)"}, {"measurement": "Sum of % necrosis in barley", "setting": "barley; Dose 0.00001, Day 1", "result": "C (less than 50% necrosis)"}, {"measurement": "Sum of % necrosis in barley", "setting": "barley; Dose 0.00001, Day 3", "result": "C (less than 50% necrosis)"}, {"measurement": "Sum of % necrosis in barley", "setting": "barley; Dose 0.00001, Day 7", "result": "C (less than 50% necrosis)"}, {"measurement": "Sum of % necrosis in barley", "setting": "barley; Dose 0.00001, Day 10", "result": "C (less than 50% necrosis)"}, {"measurement": "Sum of % necrosis in barley", "setting": "barley; Dose 0.00001, Day 14", "result": "C (less than 50% necrosis)"}, {"measurement": "Sum of % necrosis in barley", "setting": "barley; Dose 0.00001, Day 21", "result": "C (less than 50% necrosis)"}, {"measurement": "Sum of % necrosis in barley", "setting": "barley; Dose 0.00005, Day 0", "result": "C (less than 50% necrosis)"}, {"measurement": "Sum of % necrosis in barley", "setting": "barley; Dose 0.00005, Day 1", "result": "C (less than 50% necrosis)"}, {"measurement": "Sum of % necrosis in barley", "setting": "barley; Dose 0.00005, Day 3", "result": "C (less than 50% necrosis)"}, {"measurement": "Sum of % necrosis in barley", "setting": "barley; Dose 0.00005, Day 7", "result": "C (less than 50% necrosis)"}, {"measurement": "Sum of % necrosis in barley", "setting": "barley; Dose 0.00005, Day 10", "result": "C (less than 50% necrosis)"}, {"measurement": "Sum of % necrosis in barley", "setting": "barley; Dose 0.00005, Day 14", "result": "C (less than 50% necrosis)"}, {"measurement": "Sum of % necrosis in barley", "setting": "barley; Dose 0.00005, Day 21", "result": "C (less than 50% necrosis)"}, {"measurement": "Sum of % necrosis in barley", "setting": "barley; Dose 0.0001, Day 0", "result": "C (less than 50% necrosis)"}, {"measurement": "Sum of % necrosis in barley", "setting": "barley; Dose 0.0001, Day 1", "result": "C (less than 50% necrosis)"}, {"measurement": "Sum of % necrosis in barley", "setting": "barley; Dose 0.0001, Day 3", "result": "C (less than 50% necrosis)"}, {"measurement": "Sum of % necrosis in barley", "setting": "barley; Dose 0.0001, Day 7", "result": "C (less than 50% necrosis)"}, {"measurement": "Sum of % necrosis in barley", "setting": "barley; Dose 0.0001, Day 10", "result": "C (less than 50% necrosis)"}, {"measurement": "Sum of % necrosis in barley", "setting": "barley; Dose 0.0001, Day 14", "result": "C (less than 50% necrosis)"}, {"measurement": "Sum of % necrosis in barley", "setting": "barley; Dose 0.0001, Day 21", "result": "C (less than 50% necrosis)"}, {"measurement": "Sum of % necrosis in barley", "setting": "barley; Dose 0.0005, Day 0", "result": "C (less than 50% necrosis)"}, {"measurement": "Sum of % necrosis in barley", "setting": "barley; Dose 0.0005, Day 1", "result": "C (less than 50% necrosis)"}, {"measurement": "Sum of % necrosis in barley", "setting": "barley; Dose 0.0005, Day 3", "result": "C (less than 50% necrosis)"}, {"measurement": "Sum of % necrosis in barley", "setting": "barley; Dose 0.0005, Day 7", "result": "C (less than 50% necrosis)"}, {"measurement": "Sum of % necrosis in barley", "setting": "barley; Dose 0.0005, Day 10", "result": "B (50%-80% necrosis)"}, {"measurement": "Sum of % necrosis in barley", "setting": "barley; Dose 0.0005, Day 14", "result": "B (50%-80% necrosis)"}, {"measurement": "Sum of % necrosis in barley", "setting": "barley; Dose 0.0005, Day 21", "result": "B (50%-80% necrosis)"}]}]}
